Patent US12345718B2, “Method for determining the haemoglobin content of an erythroid cell” (UNIVERSITÉ PARIS EST CRÉTEIL VAL DE MARNE, priority 2016, dated 2025)
Several values for one entry are separate records, joined by “and”; a condition that tells them apart may be missing. Equal values may be shown once.

Tests used:
[1] = Complete blood count / biological data of SS patients during treatment with hydroxyurea; assay type: in vivo, human
HbF [2] = test: Mean HbF percentage (% HbF) by HPLC in SS patients before and during treatment with hydroxyurea
HbF [3] = test: HbF content of each red blood cell by flow cytometry (HbF distribution) during treatment with hydroxyurea
[4] = SS patients, M6 of hydroxyurea, median
[5] = 9 SS patients, D15-M3, mean (standard deviation)
[6] = 9 SS patients, ≥M6, mean (standard deviation)

## NC(=O)NO [hydroxyurea]
[1]; [4]
  Hemoglobin: 9.35 g/dL
  MCHC: 34.40 g/dL
  MCHCo: 33.80 pg
  MCV: 100.50 femtoliter
[1]; after 6 months of treatment
  change in mean corpuscular hemoglobin concentration (MCHC): no significant variation
  change in mean corpuscular volume (MCV): significant increase
  change in mean hemoglobin content per red blood cell (MCHCo): significant increase
[1]; after 6 months of treatment, decrease not significant
  change in percentage of dense red blood cells: tendency to decrease
[1]; patient 11
  ASAT, relative difference in % D 0 vs M 6: −52% and −52.7%
  HbF, relative difference in % D 0 vs M 6: +14.5%
  LDH, relative difference in % D 0 vs M 6: −57% and −57.7%
  RETIC, relative difference in % D 0 vs M 6: −77% and −77.1%
[1]; patient 11, M 6
  ASAT (aspartate transaminase): 26 IU/l
  HbF: 7.1 g/dL
  LDH (lactate dehydrogenase): 383 IU/l
  MCHCo: 38.9 pg
[1]; patient 24
  ASAT, relative difference in % D 0 vs M 6: −9.4%
  HbF, relative difference in % D 0 vs M 6: +14.5%
  LDH, relative difference in % D 0 vs M 6: −40.5%
  RETIC, relative difference in % D 0 vs M 6: −57% and −57.2%
[1]; patient 24, M 6
  ASAT (aspartate transaminase): 29 IU/l
  HbF: 8.7 g/dL
  LDH (lactate dehydrogenase): 303 IU/l
  MCHCo: 42 pg
HbF [2]; after 6 months of treatment, SS patients
  increase of mean HbF percentage (% HbF): approximately 3 fold
HbF [2]; patient 2, M6
  % HbF: 25%
HbF [2]; patient 11, M 6
  % HbF: 18%
HbF [2]; patient 24, M 6
  % HbF: 18%
HbF [2]; total red blood cells, SS patients, D15-M1 of hydroxyurea, median
  % HbF: 4.9%
HbF [2]; total red blood cells, SS patients, M3-M4 of hydroxyurea, median
  % HbF: 7%
HbF [2]; total red blood cells, SS patients, M6 of hydroxyurea, median
  % HbF: 10.05%
HbF [3]; [5]
  % RBCs with HbF [0; 2[ pg: 65.63 (25.13 % RBCs
  % RBCs with HbF [2; 4[ pg: 11.32 (6.80 % RBCs
  % RBCs with HbF [4; 6[ pg: 4.88 (2.90 % RBCs
  % RBCs with HbF [6; 8[ pg: 3.42 (2.52 % RBCs
  % RBCs with HbF [8; 10[ pg: 2.65 (2.18 % RBCs
  % RBCs with HbF [10; 15[ pg: 2.41 (2.73 % RBCs
  % RBCs with HbF [15; 20[ pg: 4.42 (4.27 % RBCs
  % RBCs with HbF ≥20 pg: 5.27 (8.56 % RBCs
HbF [3]; [6]
  % RBCs with HbF [0; 2[ pg: 53.17 (30.63 % RBCs
  % RBCs with HbF [2; 4[ pg: 15.05 (10.11 % RBCs
  % RBCs with HbF [4; 6[ pg: 6.70 (4.39 % RBCs
  % RBCs with HbF [6; 8[ pg: 3.92 (2.44 % RBCs
  % RBCs with HbF [8; 10[ pg: 2.72 (1.83 % RBCs
  % RBCs with HbF [10; 15[ pg: 2.55 (2.57 % RBCs
  % RBCs with HbF [15; 20[ pg: 4.29 (3.42 % RBCs
  % RBCs with HbF ≥20 pg: 11.60 (18.64 % RBCs
HbF [3]; D0 to M6
  variation of red blood cells with medium-high HbF contents: much lower variations
HbF [3]; after 6 months of treatment
  change in red blood cells having a very low HbF content: decreased greatly
  increase of red blood cells with HbF content greater than 20 pg: up to 3 fold
HbF [3]; after 6 months of treatment, heterogeneous before treatment in 8 patients, 9 analyzed
  patients in whom HbF follows a homogeneous distribution: 6 patients
HbF [3]; after 6 months of treatment, variation not significant
  increase of red blood cells with HbF content greater than 20 g: up to 3 times
HbF [3]; after ≥M4
  patients in whom HbF distribution becomes homogeneous: 5 patients
HbF [3]; between D0 and M6, 9 patients
  variation in red blood cells having the lowest HbF contents (0 and 2 pg), given as increase: approximately 25%
HbF [3]; patient 2, D15-M1
  % RBCs with HbF [0; 2[ pg: 9.21 % RBCs
  % RBCs with HbF [2; 4[ pg: 14.72 % RBCs
  % RBCs with HbF [4; 6[ pg: 9.52 % RBCs
  % RBCs with HbF [6; 8[ pg: 8.47 % RBCs
  % RBCs with HbF [8; 10[ pg: 7.35 % RBCs
  % RBCs with HbF [10; 15[ pg: 9.03 % RBCs
  % RBCs with HbF [15; 20[ pg: 14.27 % RBCs
  % RBCs with HbF ≥20 pg: 27.43 % RBCs
HbF [3]; patient 2, M3-M4
  % RBCs with HbF [0; 2[ pg: 5.29 % RBCs
  % RBCs with HbF [2; 4[ pg: 8.62 % RBCs
  % RBCs with HbF [4; 6[ pg: 10.61 % RBCs
  % RBCs with HbF [6; 8[ pg: 10.39 % RBCs
  % RBCs with HbF [8; 10[ pg: 8.75 % RBCs
  % RBCs with HbF [10; 15[ pg: 8.50 % RBCs
  % RBCs with HbF [15; 20[ pg: 14.54 % RBCs
  % RBCs with HbF ≥20 pg: 33.30 % RBCs
HbF [3]; patient 2, at M6
  change in red blood cells containing HbF content greater than 20 pg: clear increase
HbF [3]; patient 2, ≥M6
  % RBCs with HbF [0; 2[ pg: 4.98 % RBCs
  % RBCs with HbF [2; 4[ pg: 7.04 % RBCs
  % RBCs with HbF [4; 6[ pg: 5.53 % RBCs
  % RBCs with HbF [6; 8[ pg: 4.85 % RBCs
  % RBCs with HbF [8; 10[ pg: 4.56 % RBCs
  % RBCs with HbF [10; 15[ pg: 7.48 % RBCs
  % RBCs with HbF [15; 20[ pg: 9.75 % RBCs
  % RBCs with HbF ≥20 pg: 55.81 % RBCs
HbF [3]; patient 11, D15-M1
  % RBCs with HbF [0; 2[ pg: 55.38 % RBCs
  % RBCs with HbF [2; 4[ pg: 23.31 % RBCs
  % RBCs with HbF [4; 6[ pg: 6.25 % RBCs
  % RBCs with HbF [6; 8[ pg: 3.07 % RBCs
  % RBCs with HbF [8; 10[ pg: 2.55 % RBCs
  % RBCs with HbF [10; 15[ pg: 2.24 % RBCs
  % RBCs with HbF [15; 20[ pg: 4.42 % RBCs
  % RBCs with HbF ≥20 pg: 2.78 % RBCs
HbF [3]; patient 11, M3-M4
  % RBCs with HbF [0; 2[ pg: 48.83 % RBCs
  % RBCs with HbF [2; 4[ pg: 31.73 % RBCs
  % RBCs with HbF [4; 6[ pg: 9.30 % RBCs
  % RBCs with HbF [6; 8[ pg: 4.32 % RBCs
  % RBCs with HbF [8; 10[ pg: 2.04 % RBCs
  % RBCs with HbF [10; 15[ pg: 0.72 % RBCs
  % RBCs with HbF [15; 20[ pg: 2.46 % RBCs
  % RBCs with HbF ≥20 pg: 0.59 % RBCs
HbF [3]; patient 11, at 6 months of treatment
  RBCs >6 pg HbF: 57%
HbF [3]; patient 11, at M6
  decrease of red blood cells with HbF content of less than 2 pg: approximately 73%
HbF [3]; patient 11, ≥M6
  % RBCs with HbF [0; 2[ pg: 12.93 % RBCs
  % RBCs with HbF [2; 4[ pg: 17.62 % RBCs
  % RBCs with HbF [4; 6[ pg: 11.85 % RBCs
  % RBCs with HbF [6; 8[ pg: 8.05 % RBCs
  % RBCs with HbF [8; 10[ pg: 6.08 % RBCs
  % RBCs with HbF [10; 15[ pg: 6.13 % RBCs
  % RBCs with HbF [15; 20[ pg: 9.77 % RBCs
  % RBCs with HbF ≥20 pg: 27.57 % RBCs
HbF [3]; patient 24, D15-M1
  % RBCs with HbF [0; 2[ pg: 53.17 % RBCs
  % RBCs with HbF [2; 4[ pg: 11.57 % RBCs
  % RBCs with HbF [4; 6[ pg: 6.69 % RBCs
  % RBCs with HbF [6; 8[ pg: 5.58 % RBCs
  % RBCs with HbF [8; 10[ pg: 4.50 % RBCs
  % RBCs with HbF [10; 15[ pg: 3.89 % RBCs
  % RBCs with HbF [15; 20[ pg: 7.56 % RBCs
  % RBCs with HbF ≥20 pg: 7.04 % RBCs
HbF [3]; patient 24, M3-M4
  % RBCs with HbF [0; 2[ pg: 44.56 % RBCs
  % RBCs with HbF [2; 4[ pg: 24.93 % RBCs
  % RBCs with HbF [4; 6[ pg: 12.53 % RBCs
  % RBCs with HbF [6; 8[ pg: 5.81 % RBCs
  % RBCs with HbF [8; 10[ pg: 3.09 % RBCs
  % RBCs with HbF [10; 15[ pg: 1.87 % RBCs
  % RBCs with HbF [15; 20[ pg: 3.81 % RBCs
  % RBCs with HbF ≥20 pg: 3.41 % RBCs
HbF [3]; patient 24, at 6 months of treatment
  RBCs >6 pg HbF: 24%
HbF [3]; patient 24, at M6
  decrease of red blood cells with HbF content of less than 2 pg: approximately 40%
HbF [3]; patient 24, ≥M6
  % RBCs with HbF [0; 2[ pg: 36.98 % RBCs
  % RBCs with HbF [2; 4[ pg: 25.28 % RBCs
  % RBCs with HbF [4; 6[ pg: 13.64 % RBCs
  % RBCs with HbF [6; 8[ pg: 6.92 % RBCs
  % RBCs with HbF [8; 10[ pg: 3.93 % RBCs
  % RBCs with HbF [10; 15[ pg: 2.70 % RBCs
  % RBCs with HbF [15; 20[ pg: 5.36 % RBCs
  % RBCs with HbF ≥20 pg: 5.20 % RBCs
HbF [3]; starting from M2
  patients in whom HbF distribution becomes homogeneous: 1 patient
